Reference: ChEMBL document CHEMBL5696441 (Nat Chem Biol, 2011)
Activity calls are given as the source filed them. The rule behind the calls is not given here.

How the values were obtained:
[1] = target: Tyrosine-protein kinase CSK (Homo sapiens) (UniProt P41240); assay: Inhibition of CSK (unknown origin) assessed as remaining activity at 1 uM by Kinome scan method relative to control
[2] = target: STE20-like serine/threonine-protein kinase (Homo sapiens) (UniProt Q9H2G2); assay: Inhibition of SLK (unknown origin) assessed as remaining activity at 1 uM by Kinome scan method relative to control
Chain of STE20-like serine/threonine-protein kinase (Homo sapiens) (Q9H2G2 whole entry, looked up): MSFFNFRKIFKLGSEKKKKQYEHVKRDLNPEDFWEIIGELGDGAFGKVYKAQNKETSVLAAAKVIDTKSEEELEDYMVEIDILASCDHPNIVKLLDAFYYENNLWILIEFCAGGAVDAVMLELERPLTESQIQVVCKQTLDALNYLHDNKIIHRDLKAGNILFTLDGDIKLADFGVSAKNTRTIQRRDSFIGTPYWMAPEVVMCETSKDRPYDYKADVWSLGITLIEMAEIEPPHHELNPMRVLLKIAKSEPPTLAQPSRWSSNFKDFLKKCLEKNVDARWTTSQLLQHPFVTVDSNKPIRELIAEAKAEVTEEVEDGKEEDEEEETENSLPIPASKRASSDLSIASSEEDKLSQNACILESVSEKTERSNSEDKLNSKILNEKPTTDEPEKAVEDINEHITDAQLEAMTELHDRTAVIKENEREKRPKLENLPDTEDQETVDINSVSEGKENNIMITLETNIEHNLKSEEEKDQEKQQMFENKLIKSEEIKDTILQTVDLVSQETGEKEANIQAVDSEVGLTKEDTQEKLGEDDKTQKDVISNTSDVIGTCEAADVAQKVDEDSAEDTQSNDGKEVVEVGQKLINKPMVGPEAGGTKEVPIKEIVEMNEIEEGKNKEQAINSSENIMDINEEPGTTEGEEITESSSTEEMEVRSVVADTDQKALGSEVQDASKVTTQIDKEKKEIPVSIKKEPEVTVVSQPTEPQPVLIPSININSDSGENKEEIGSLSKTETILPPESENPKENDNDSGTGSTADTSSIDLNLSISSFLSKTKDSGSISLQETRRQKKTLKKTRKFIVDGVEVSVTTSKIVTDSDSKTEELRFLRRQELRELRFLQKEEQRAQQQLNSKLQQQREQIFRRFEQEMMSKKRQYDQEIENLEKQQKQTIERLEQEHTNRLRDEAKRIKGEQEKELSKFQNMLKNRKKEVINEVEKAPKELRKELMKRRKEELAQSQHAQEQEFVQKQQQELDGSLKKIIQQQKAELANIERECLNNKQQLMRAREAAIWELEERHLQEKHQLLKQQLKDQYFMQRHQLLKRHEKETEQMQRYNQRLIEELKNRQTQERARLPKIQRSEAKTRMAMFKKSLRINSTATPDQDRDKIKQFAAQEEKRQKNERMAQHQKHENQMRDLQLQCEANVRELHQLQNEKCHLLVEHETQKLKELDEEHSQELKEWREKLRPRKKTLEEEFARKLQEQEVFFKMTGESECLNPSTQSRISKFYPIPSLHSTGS

[3] = system: Epidermal growth factor receptor (Homo sapiens), P00533 [UNDEFINED MUTATION]; assay: Inhibition of human EGFR d746-750 mutant assessed as residual activity at 1 uM using PolyEY as substrate in presence of 33P-ATP by ProQinase assay relative to control
Chain of Epidermal growth factor receptor (Homo sapiens), P00533 [UNDEFINED MUTATION] (P00533 whole entry, looked up, change not shown): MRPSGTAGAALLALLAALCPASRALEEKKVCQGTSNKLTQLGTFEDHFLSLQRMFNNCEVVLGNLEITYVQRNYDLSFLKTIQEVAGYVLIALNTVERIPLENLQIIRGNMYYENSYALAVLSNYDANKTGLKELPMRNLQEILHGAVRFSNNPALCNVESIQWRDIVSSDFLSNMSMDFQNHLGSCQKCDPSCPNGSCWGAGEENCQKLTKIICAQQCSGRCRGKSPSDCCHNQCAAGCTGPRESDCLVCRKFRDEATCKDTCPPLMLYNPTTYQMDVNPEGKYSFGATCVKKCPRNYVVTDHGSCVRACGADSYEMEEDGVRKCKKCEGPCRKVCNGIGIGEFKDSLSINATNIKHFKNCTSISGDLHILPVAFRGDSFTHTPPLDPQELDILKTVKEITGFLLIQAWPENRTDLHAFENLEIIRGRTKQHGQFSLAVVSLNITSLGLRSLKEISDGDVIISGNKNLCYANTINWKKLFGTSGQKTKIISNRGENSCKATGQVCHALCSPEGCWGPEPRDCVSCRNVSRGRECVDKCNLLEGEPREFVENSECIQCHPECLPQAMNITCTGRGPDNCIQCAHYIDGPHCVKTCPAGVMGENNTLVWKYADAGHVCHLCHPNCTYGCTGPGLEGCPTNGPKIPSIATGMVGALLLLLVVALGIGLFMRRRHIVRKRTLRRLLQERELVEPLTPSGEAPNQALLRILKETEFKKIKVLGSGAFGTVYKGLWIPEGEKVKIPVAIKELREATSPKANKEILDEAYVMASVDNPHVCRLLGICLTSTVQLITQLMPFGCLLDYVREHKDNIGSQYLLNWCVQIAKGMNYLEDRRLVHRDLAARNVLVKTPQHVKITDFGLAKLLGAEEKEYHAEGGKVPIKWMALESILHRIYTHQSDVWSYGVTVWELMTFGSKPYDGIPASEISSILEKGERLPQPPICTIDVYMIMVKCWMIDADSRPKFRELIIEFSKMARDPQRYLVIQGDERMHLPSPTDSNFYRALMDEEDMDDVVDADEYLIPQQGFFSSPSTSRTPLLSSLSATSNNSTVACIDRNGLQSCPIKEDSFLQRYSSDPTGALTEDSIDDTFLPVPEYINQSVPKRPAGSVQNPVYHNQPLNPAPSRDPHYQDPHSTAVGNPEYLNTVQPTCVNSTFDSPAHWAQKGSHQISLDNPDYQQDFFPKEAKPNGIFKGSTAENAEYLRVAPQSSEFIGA

[4] = target: T1, Inhibitor of nuclear factor kappa-B kinase subunit alpha (Homo sapiens) (UniProt O15111); assay: Inhibition of human IKKalpha assessed as residual activity at 1 uM using RBER-CHKtide as substrate in presence of 33P-ATP by ProQinase assay relative to control
T1 sequence (whole entry): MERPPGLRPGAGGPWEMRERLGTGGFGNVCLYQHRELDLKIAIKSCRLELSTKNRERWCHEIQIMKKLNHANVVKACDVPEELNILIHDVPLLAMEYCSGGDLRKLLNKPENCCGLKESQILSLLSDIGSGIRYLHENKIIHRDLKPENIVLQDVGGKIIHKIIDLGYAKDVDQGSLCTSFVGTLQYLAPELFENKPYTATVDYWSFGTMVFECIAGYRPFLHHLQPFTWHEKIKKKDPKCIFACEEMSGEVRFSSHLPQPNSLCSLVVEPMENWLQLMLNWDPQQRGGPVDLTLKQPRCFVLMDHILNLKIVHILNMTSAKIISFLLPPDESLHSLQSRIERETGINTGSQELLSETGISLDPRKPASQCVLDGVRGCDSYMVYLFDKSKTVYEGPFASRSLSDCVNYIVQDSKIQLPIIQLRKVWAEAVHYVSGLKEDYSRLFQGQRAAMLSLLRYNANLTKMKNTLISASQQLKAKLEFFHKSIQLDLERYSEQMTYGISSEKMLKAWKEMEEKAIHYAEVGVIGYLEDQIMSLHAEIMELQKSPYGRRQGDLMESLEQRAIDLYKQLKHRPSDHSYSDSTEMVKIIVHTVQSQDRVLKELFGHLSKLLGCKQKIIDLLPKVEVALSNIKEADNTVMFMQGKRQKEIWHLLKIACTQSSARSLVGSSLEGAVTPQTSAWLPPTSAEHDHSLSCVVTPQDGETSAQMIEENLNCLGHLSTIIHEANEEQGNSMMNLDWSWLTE

[5] = target: T2, Serine/threonine-protein kinase D1 (Homo sapiens) (UniProt Q15139); assay: Inhibition of human PKCmu assessed as residual activity at 1 uM using RBER-CHKtide as substrate in presence of 33P-ATP by ProQinase assay relative to control
T2 sequence (whole entry): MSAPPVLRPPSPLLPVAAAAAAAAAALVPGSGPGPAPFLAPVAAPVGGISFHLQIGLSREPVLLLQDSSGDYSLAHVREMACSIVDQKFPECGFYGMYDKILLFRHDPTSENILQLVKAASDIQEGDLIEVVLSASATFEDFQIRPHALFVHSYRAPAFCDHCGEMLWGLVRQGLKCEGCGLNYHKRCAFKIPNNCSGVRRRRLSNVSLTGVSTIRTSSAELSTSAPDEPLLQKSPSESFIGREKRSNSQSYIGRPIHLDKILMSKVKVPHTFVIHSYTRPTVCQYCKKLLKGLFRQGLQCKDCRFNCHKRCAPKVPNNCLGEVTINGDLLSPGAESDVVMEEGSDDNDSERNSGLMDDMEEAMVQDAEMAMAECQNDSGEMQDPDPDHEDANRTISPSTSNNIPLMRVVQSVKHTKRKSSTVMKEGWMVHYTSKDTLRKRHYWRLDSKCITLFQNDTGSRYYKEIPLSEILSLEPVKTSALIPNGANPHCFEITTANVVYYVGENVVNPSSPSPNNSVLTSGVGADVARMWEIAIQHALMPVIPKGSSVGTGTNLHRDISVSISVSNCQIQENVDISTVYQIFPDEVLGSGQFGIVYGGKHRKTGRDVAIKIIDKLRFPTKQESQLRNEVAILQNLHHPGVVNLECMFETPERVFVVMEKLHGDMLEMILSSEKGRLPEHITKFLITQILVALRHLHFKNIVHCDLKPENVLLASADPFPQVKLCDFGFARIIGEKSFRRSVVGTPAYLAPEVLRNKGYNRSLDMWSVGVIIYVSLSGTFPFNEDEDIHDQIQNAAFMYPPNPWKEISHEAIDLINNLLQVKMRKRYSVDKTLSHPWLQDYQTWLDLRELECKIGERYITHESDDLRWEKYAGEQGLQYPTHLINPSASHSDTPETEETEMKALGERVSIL

[6] = target: T3, cGMP-dependent protein kinase 2 (Homo sapiens) (UniProt Q13237); assay: Inhibition of human PRKG2 assessed as residual activity at 1 uM using RBER-GSK3(14-27) as substrate in presence of 33P-ATP by ProQinase assay relative to control
T3 sequence (whole entry): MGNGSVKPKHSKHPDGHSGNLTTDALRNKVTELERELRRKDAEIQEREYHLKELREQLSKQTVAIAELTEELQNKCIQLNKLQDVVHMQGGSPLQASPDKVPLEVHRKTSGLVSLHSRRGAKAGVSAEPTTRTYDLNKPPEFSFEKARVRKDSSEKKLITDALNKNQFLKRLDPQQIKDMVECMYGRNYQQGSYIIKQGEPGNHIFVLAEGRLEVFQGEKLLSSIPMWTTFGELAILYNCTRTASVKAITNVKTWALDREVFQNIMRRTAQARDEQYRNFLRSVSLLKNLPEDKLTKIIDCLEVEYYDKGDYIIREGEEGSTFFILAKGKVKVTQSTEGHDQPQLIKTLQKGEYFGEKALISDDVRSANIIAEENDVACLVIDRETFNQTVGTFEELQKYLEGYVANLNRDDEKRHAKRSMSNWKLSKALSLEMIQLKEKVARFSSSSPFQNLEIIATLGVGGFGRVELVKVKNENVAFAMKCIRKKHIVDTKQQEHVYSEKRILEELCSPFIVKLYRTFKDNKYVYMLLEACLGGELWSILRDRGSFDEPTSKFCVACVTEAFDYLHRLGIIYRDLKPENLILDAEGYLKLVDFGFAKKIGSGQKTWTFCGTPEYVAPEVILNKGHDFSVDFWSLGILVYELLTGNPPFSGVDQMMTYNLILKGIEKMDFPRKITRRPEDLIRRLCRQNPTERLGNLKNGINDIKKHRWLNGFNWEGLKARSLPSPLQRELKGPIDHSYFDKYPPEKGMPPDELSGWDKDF

[7] = system: PBMC; assay: Anti-inflammatory activity against human derived medium respond PBMC cells assessed as increase in stimulated IL-12p70 cytokine release at 1 uM incubated for 2 hrs in the presence of LPS/SEB/aCD28 by Luminex based sandwich immunoassay; type: functional, cell-based

Chain of Tyrosine-protein kinase CSK (Homo sapiens) (P41240 2-450 limits assumed): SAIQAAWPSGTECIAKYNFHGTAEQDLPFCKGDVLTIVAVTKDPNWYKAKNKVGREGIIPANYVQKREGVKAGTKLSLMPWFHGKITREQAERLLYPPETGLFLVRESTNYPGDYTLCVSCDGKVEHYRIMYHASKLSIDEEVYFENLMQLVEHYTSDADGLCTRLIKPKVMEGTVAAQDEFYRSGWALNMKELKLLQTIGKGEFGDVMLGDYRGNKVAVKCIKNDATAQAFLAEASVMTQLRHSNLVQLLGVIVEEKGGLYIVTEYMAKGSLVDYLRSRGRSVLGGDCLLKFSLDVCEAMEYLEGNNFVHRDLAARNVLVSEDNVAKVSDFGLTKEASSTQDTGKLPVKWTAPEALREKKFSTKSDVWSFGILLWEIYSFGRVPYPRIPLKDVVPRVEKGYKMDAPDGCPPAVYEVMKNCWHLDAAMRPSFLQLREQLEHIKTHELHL

With `O=C1c2ccc(Nc3ccc(F)cc3F)cc2CCc2ccc(OC[C@H](O)CO)cc21` [Skepinone-L] as the compound, how does the Activity [1] read?
Its Activity is 100%.

And the Activity [2]?
The Activity was 100%.

What about the Activity [3] of the same compound?
The Activity was 100%.

What about the Activity [4] of the same compound?
The Activity was 88%.

And the Activity [5]?
The Activity was 92%.

And the Activity [6]?
Its Activity is 94%.

And the Activity [7]?
Its Activity is “Active”.
